# From publication PMC10165273, “Itch receptor MRGPRX4 interacts with the receptor activity–modifying proteins” (The Journal of Biological Chemistry, 2023)
# Where “and” joins values, the source holds several entries; their conditions need not be identical. Equal values may be shown once. Read-outs that look alike come from different tables or passages of the source.
# Molecular target: T1, MRGPRX4 (Homo sapiens, UniProt Q96LA9)
# T1 construct: expressed in transfected cells; host or cells: HEK293T
# Experiment: IP1 accumulation HTRF assay, MRGPRX4
# Type: cell-based
# Design: key to IP1 Basal / IP1 accumulation with YM (Figure 1c) / response to agonist, MRGPRX4 / IP1 accumulation: % IP1: unstimulated mock-transfected = 0%, fully stimulated MRGPRX4 = 100%
# T1 sequence (Q96LA9 whole entry): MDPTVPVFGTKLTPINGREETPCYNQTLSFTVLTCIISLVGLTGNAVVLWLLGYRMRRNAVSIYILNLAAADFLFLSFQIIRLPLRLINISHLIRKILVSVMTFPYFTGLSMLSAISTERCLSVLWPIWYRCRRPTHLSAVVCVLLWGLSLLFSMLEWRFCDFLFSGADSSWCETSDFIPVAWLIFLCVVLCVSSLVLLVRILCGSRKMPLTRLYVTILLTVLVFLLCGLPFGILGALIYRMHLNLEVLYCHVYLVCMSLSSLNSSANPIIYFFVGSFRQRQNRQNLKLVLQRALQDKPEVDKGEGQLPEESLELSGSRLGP
smiles,measurement,setting,value
CC(C)[C@H]1CC[C@H](C(=O)N[C@H](Cc2ccccc2)C(=O)O)CC1 [Nateglinide],EC50,"MRGPRX4 0.25 pg DNA/cell, individual experiments, read-out: potency (Figure 1b top) (converted)",13.5 µM (2×) and 12.5 µM
same,Emax,"MRGPRX4 0.5 pg DNA/cell, individual experiments, read-out: efficacy (Figure 1b bottom)",95.7%
same,EC50,"MRGPRX4 0.5 pg DNA/cell, individual experiments, read-out: potency (Figure 1b top) (converted)",12.3 µM and 9.23 µM
same,Emax,"MRGPRX4 1 pg DNA/cell, individual experiments, read-out: efficacy (Figure 1b bottom)",104%
same,EC50,"MRGPRX4 1 pg DNA/cell, individual experiments, read-out: potency (Figure 1b top) (converted)",10.9 µM and 9.68 µM and 8.2 µM
same,Emax,"MRGPRX4 2 pg DNA/cell, individual experiments, read-out: efficacy (Figure 1b bottom)",97.2%
same,EC50,"MRGPRX4 2 pg DNA/cell, individual experiments, read-out: potency (Figure 1b top) (converted)",6.87 µM and 6.27 µM and 6.64 µM
same,IP1 Basal,"MRGPRX4 (Fig. 1A), HEK293T, normalized to 100 μM nateglinide",14.95
same,EC50,"MRGPRX4 (Fig. 1A), HEK293T, normalized to 100 μM nateglinide, read-out: IP1 EC50",10.7 µM
same,EC50,"MRGPRX4, HEK293T (Fig. 1A), read-out: EC50 concentration, IP1 accumulation",10.6 µM
same,IP1 accumulation,"MRGPRX4: 2pg/cell, log [Nateglinide] (M) -4, Fig S1b/c",100
same,IP1 accumulation,"MRGPRX4: 2pg/cell, log [Nateglinide] (M) -4.69897, Fig S1b/c",88.6878 and 83.9734
same,IP1 accumulation,"MRGPRX4: 2pg/cell, log [Nateglinide] (M) -5.39794, Fig S1b/c",45.9251 and 47.3838
same,IP1 accumulation,"MRGPRX4: 2pg/cell, log [Nateglinide] (M) -6.09691, Fig S1b/c",18.7171 and 20.7267
same,IP1 accumulation,"MRGPRX4: 2pg/cell, log [Nateglinide] (M) -6.79588, Fig S1b/c",11.3987 and 15.6075
same,IP1 accumulation,"MRGPRX4: 2pg/cell, log [Nateglinide] (M) -7.49485, Fig S1b/c",10.9025 and 14.1936
same,IP1 Basal,MRGPRX4 DNA 0.25 pg/cell (Fig. S1),4.926
same,EC50,"MRGPRX4 DNA 0.25 pg/cell (Fig. S1), read-out: IP1 EC50",13.6 µM
same,Emax,"MRGPRX4 DNA 0.25 pg/cell (Fig. S1), read-out: IP1 Emax",84.4%
same,Emax,"MRGPRX4 DNA 0.25 pg/cell (Fig. S1), read-out: IP1 span",79.5%
same,IP1 Basal,MRGPRX4 DNA 0.5 pg/cell (Fig. S1),6.421
same,EC50,"MRGPRX4 DNA 0.5 pg/cell (Fig. S1), read-out: IP1 EC50",11 µM
same,Emax,"MRGPRX4 DNA 0.5 pg/cell (Fig. S1), read-out: IP1 Emax",97.5%
same,Emax,"MRGPRX4 DNA 0.5 pg/cell (Fig. S1), read-out: IP1 span",91%
same,IP1 Basal,MRGPRX4 DNA 1 pg/cell (Fig. S1),9.219
same,EC50,"MRGPRX4 DNA 1 pg/cell (Fig. S1), read-out: IP1 EC50",9.79 µM
same,Emax,"MRGPRX4 DNA 1 pg/cell (Fig. S1), read-out: IP1 Emax",106%
same,Emax,"MRGPRX4 DNA 1 pg/cell (Fig. S1), read-out: IP1 span",96.7%
same,IP1 Basal,MRGPRX4 DNA 2 pg/cell (Fig. S1),11.77
same,EC50,"MRGPRX4 DNA 2 pg/cell (Fig. S1), read-out: IP1 EC50",6.8 µM
same,Emax,"MRGPRX4 DNA 2 pg/cell (Fig. S1), read-out: IP1 Emax",108%
same,Emax,"MRGPRX4 DNA 2 pg/cell (Fig. S1), read-out: IP1 span",96.3%
same,EC50,"MRGPRX4 DNA […] (Fig. S1), read-out: IP1 EC50",13.9 µM
same,Emax,"MRGPRX4 DNA […] (Fig. S1), read-out: IP1 Emax",74.8%
same,Emax,"MRGPRX4 DNA […] (Fig. S1), read-out: IP1 span",72.2%
same,IP1 accumulation,"MRGPRX4 alone, log [Nateglinide] (M) -4.69897, Fig S3a-c",73.8798 and 88.0796
same,IP1 accumulation,"MRGPRX4 alone, log [Nateglinide] (M) -5.39794, Fig S3a-c",42.3002 and 52.0108
same,IP1 accumulation,"MRGPRX4 alone, log [Nateglinide] (M) -6.09691, Fig S3a-c",21.697 and 30.974
same,IP1 accumulation,"MRGPRX4 alone, log [Nateglinide] (M) -6.79588, Fig S3a-c",15.7135 and 25.7363
same,IP1 accumulation,"MRGPRX4 alone, log [Nateglinide] (M) -7.49485, Fig S3a-c",14.3426 and 24.4649
same,normalized IP1 accumulation,"SP-FLAG-Nluc-HT7-MRGX4_Tet-GFP10-1D4, log [agonist] (M) -4.09691",53.7873 and 50.7716
same,normalized IP1 accumulation,"SP-FLAG-Nluc-HT7-MRGX4_Tet-GFP10-1D4, log [agonist] (M) -4.79588",39.105 and 47.513
same,normalized IP1 accumulation,"SP-FLAG-Nluc-HT7-MRGX4_Tet-GFP10-1D4, log [agonist] (M) -5.49485",24.2093 and 23.5323
same,normalized IP1 accumulation,"SP-FLAG-Nluc-HT7-MRGX4_Tet-GFP10-1D4, log [agonist] (M) -6.19382",9.755 and 12.1626
same,normalized IP1 accumulation,"SP-FLAG-Nluc-HT7-MRGX4_Tet-GFP10-1D4, log [agonist] (M) -6.89279",9.31 and 10.6126
same,normalized IP1 accumulation,"SP-FLAG-Nluc-HT7-MRGX4_Tet-GFP10-1D4, log [agonist] (M) -7.59176",10.0922 and 8.039
same,normalized IP1 accumulation,"SP-FLAG-Nluc-HT7-MRGX4_Tet-GFP10-1D4 no dox, log [agonist] (M) -4.79588",9.836 and 10.4491
same,normalized IP1 accumulation,"SP-FLAG-Nluc-HT7-MRGX4_Tet-GFP10-1D4 no dox, log [agonist] (M) -5.49485",7.573 and 7.949
same,normalized IP1 accumulation,"SP-FLAG-Nluc-HT7-MRGX4_Tet-GFP10-1D4 no dox, log [agonist] (M) -6.19382",7.652 and 7.516
same,normalized IP1 accumulation,"SP-FLAG-Nluc-HT7-MRGX4_Tet-GFP10-1D4 no dox, log [agonist] (M) -6.89279",8.115 and 7.953
same,normalized IP1 accumulation,"SP-FLAG-Nluc-HT7-MRGX4_Tet-GFP10-1D4 no dox, log [agonist] (M) -7.59176",8.427 and 8.747
same,normalized IP1 accumulation,"SP-Flag-MRGX4-1D4, log [agonist] (M) -4",90.7901 and 99.3577
same,normalized IP1 accumulation,"SP-Flag-MRGX4-1D4, log [agonist] (M) -4.69897",68.6541 and 83.0667
same,normalized IP1 accumulation,"SP-Flag-MRGX4-1D4, log [agonist] (M) -5.39794",34.48 and 31.1467
same,normalized IP1 accumulation,"SP-Flag-MRGX4-1D4, log [agonist] (M) -6.09691",13.1213 and 14.7496
same,normalized IP1 accumulation,"SP-Flag-MRGX4-1D4, log [agonist] (M) -6.79588",9.479 and 9.146
same,normalized IP1 accumulation,"SP-Flag-MRGX4-1D4, log [agonist] (M) -7.49485",7.648 and 7.711
same,normalized IP1 accumulation,"SP-Flag-MRGX4-GFP10-1D4, log [agonist] (M) -4.69897",81.9562 and 74.6812
same,normalized IP1 accumulation,"SP-Flag-MRGX4-GFP10-1D4, log [agonist] (M) -5.39794",38.7817 and 35.4094
same,normalized IP1 accumulation,"SP-Flag-MRGX4-GFP10-1D4, log [agonist] (M) -6.09691",15.3576 and 16.0977
same,normalized IP1 accumulation,"SP-Flag-MRGX4-GFP10-1D4, log [agonist] (M) -6.79588",8.66 and 9.498
same,normalized IP1 accumulation,"SP-Flag-MRGX4-GFP10-1D4, log [agonist] (M) -7.49485",9.929 and 8.168
same,IP1 Basal,"Tet-On MRGPRX4 1pg/cell, Dox 13 ng/mL (Fig. S5B)",-3.433
same,EC50,"Tet-On MRGPRX4 1pg/cell, Dox 13 ng/mL (Fig. S5B), read-out: IP1 EC50",19.2 µM
same,Emax,"Tet-On MRGPRX4 1pg/cell, Dox 13 ng/mL (Fig. S5B), read-out: IP1 Emax",17.4%
same,Emax,"Tet-On MRGPRX4 1pg/cell, Dox 13 ng/mL (Fig. S5B), read-out: IP1 span",20.8%
same,IP1 Basal,"Tet-On MRGPRX4 1pg/cell, Dox 40 ng/mL (Fig. S5B)",-3.380
same,EC50,"Tet-On MRGPRX4 1pg/cell, Dox 40 ng/mL (Fig. S5B), read-out: IP1 EC50",13.7 µM
same,Emax,"Tet-On MRGPRX4 1pg/cell, Dox 40 ng/mL (Fig. S5B), read-out: IP1 Emax",18.8%
same,Emax,"Tet-On MRGPRX4 1pg/cell, Dox 40 ng/mL (Fig. S5B), read-out: IP1 span",22.1%
same,IP1 Basal,"Tet-On MRGPRX4 1pg/cell, Dox 1100 ng/mL (Fig. S5B)",-3.039
same,EC50,"Tet-On MRGPRX4 1pg/cell, Dox 1100 ng/mL (Fig. S5B), read-out: IP1 EC50",10.8 µM
same,Emax,"Tet-On MRGPRX4 1pg/cell, Dox 1100 ng/mL (Fig. S5B), read-out: IP1 Emax",30.6%
same,Emax,"Tet-On MRGPRX4 1pg/cell, Dox 1100 ng/mL (Fig. S5B), read-out: IP1 span",33.7%
same,IP1 Basal,"Tet-On MRGPRX4 1pg/cell, Dox 3300 ng/mL (Fig. S5B)",-1.008
